In patent US4681884A, “Diazine-ethenylphenyl oxamic acids and esters and salts thereof” (Boehringer Ingelheim Pharmaceuticals, Inc., priority 1985, dated 1987):
Structures can show the parent of a compound that is named as a salt.

test system: not given; assay: not given; details: given orally; cited from earlier work

In the case of `O=C(O)c1cc(=O)c2c(OCC(O)COc3cccc4oc(C(=O)O)cc(=O)c34)cccc2o1` [Cromoglycate], the “antiallergic activity when given orally” value is listed as “not active”.

same assay, conditions: inhalation as a solid; cited from earlier work

In the case of `O=C(O)c1cc(=O)c2c(OCC(O)COc3cccc4oc(C(=O)O)cc(=O)c34)cccc2o1` [Cromoglycate], the “bronchodilator when given by inhalation as a solid” value is given as “effective”.

test system: Passive Cutaneous Anaphylaxis; assay: Passive Cutaneous Anaphylaxis (PCA) Assay, in vivo anti-allergic activity; set-up: species or system rat; details: 10 mg/kg, p.o.; oral administration 30 minutes before ovalbumin challenge; blued area vs control
Description: Passive Cutaneous Anaphylaxis (PCA) Assay
Representative compounds of the present invention were tested comparatively with cromoglycate to determine in vivo anti-allergic activity. The anti-allergic properties were ascertained in rats by the Passive Cutaneous Anaphylaxis test (PCA) essentially as described by Goose and Blair, Immunology, 16: 749-760 (1969).
Rat serum was diluted so that skin reactions with diameters between 10 and 15 mm in unsensitized rats were produced. The PCA test was performed in duplicate by injecting 0.1 ml of this antiserum dilution on each side of the shaved back of rats. Rats so treated were injected intravenously (i.v.) twenty-four hours later with 0.02 mg ovalbumin in 0.5 ml of 1% Evans Blue solution within five minutes after intravenous administration or 30 minutes after oral administration of the test compounds. Thirty minutes after the ovalbumin challenge the rats were killed by CO2 -asphyxiation, and the skin was reflected. The diameters, in millimeters, of the blued areas were measured and the mean diameter was determined. The circular area was calculated, and the mean area in square millimeters of the control group was considered as 100%. The results of the compound test groups were expressed as a percentage change from these control values. From dose response curves the dose reducing the size of the blued area by 50% (ED50) was estimated.

In the case of `CCOC(=O)C(=O)Nc1cc(C=Cc2ccc(Cl)nn2)cc(NC(=O)C(=O)OCC)c1Cl` [Example 37, Diethyl 2-(6-chloropyridazin-3-yl)ethenyl (4-chlorophenyl)-3,5dioxamate], the “% Inhibition” value is reported as 54%.

same assay, conditions: 10 mg/kg, p.o.; repeat test

With `O=C(O)C(=O)Nc1cccc(C=Cc2ccnc(NC(=O)C(=O)O)n2)c1` [Example 29, 2-(2-Carboxycarbonylamino-pyrimidin-4-yl)ethenyl-phenyl-3 oxamic acid tetra-sodium salt di-hydrate] the “% Inhibition (repeat)” value was 2%.

same assay, conditions: Rattus norvegicus, 0.5 h; 3 mg/kg, i.v.; ovalbumin challenge within five minutes after intravenous administration

`O=C(O)C(=O)Nc1ccc(C=Cc2ccncn2)cc1` [Example 2, 2-(4-Pyrimidinyl)ethenylphenyl-4 oxamic acid ethanolamine salt] showed an inhibition in vivo at 3 mg/kg of 63%.

same assay, conditions: Rattus norvegicus, 0.5 h; 10 mg/kg, p.o.; oral administration 30 minutes before ovalbumin challenge; blued area vs control

Compared with `CC(=O)Nc1nccc(C=Cc2cccc(NC(=O)C(=O)O)c2)n1` [Example 17, 2-(2-Acetamidopyrimidin-4-yl)ethenylphenyl-3 oxamic acid tromethane salt], `O=C(O)C(=O)Nc1cccc(C=Cc2ccnc(NC(=O)C(=O)O)n2)c1` [Example 29, 2-(2-Carboxycarbonylamino-pyrimidin-4-yl)ethenyl-phenyl-3 oxamic acid tetra-sodium salt di-hydrate] is higher in inhibition in vivo at 10 mg/kg: 37% for the first, 67% for the second.

Compared with `CCOC(=O)C(=O)Nc1cccc(C=Cc2cc(NC(=O)C(=O)OCC)nc(C)n2)c1` [Example 26, Ethyl 2-(2-methyl-6-ethoxyoxalyl-aminopyrimidin-4-yl)-ethenylphenyl-3 oxamate hemihydrate], `CCOC(=O)C(=O)Nc1cccc(C=Cc2ccnc(NC(=O)C(=O)OCC)n2)c1` [Example 28, Ethyl 2-(2-ethoxyoxalylamino-pyrimidin-4-yl)ethenyl-phenyl-3 oxamate] is lower in inhibition in vivo at 10 mg/kg: 64% for the first, 5% for the second.

First: CCOC(=O)C(=O)Nc1cccc(C=Cc2ccnc(NC(C)=O)n2)c1 [Example 16, Ethyl 2-(2-acetamidopyrimidin-4-yl)ethenylphenyl-3 oxamate]
Second: CCOC(=O)C(=O)Nc1ccccc1C=Cc1ccncn1 [Example 6, Ethyl 2-(4-pyrimidinyl)ethenylphenyl-2 oxamate]
The inhibition in vivo at 10 mg/kg of the first is higher: 42% for the first, 20% for the second.

`Cc1nc(C=Cc2cccc(NC(=O)C(=O)O)c2)cc(NC(=O)C(=O)O)n1` [Example 27, 2-(2-Methyl-6-carboxycarbonyl-aminopyrimidin-4-yl)-ethenylphenyl-3 oxamic acid di-tromethane salt] and `O=C(O)C(=O)Nc1ccc(C=Cc2cccnn2)cc1` [Example 19, 2-(3-Pyridazinyl)ethenylphenyl-4 oxamic acid ethanolamine salt] are the same in inhibition in vivo at 10 mg/kg: 0% for the first, 0% for the second.

Compared with `CCc1nccnc1C=Cc1ccc(NC(=O)C(=O)O)cc1` [Example 31, 2-(3-Ethylpyrazin-2-yl)ethenyl-phenyl-4 oxamic acid ethanolamine salt], `CCOC(=O)C(=O)Nc1ccc(C=Cc2nccnc2CC)cc1` [Example 30, Ethyl 2-(3-ethylpyrazin-2-yl)ethenylphenyl-4 oxamate] is lower in inhibition in vivo at 10 mg/kg: 15% for the first, 6% for the second.

Going from `CCOC(=O)C(=O)Nc1cc(C=Cc2ccncn2)ccc1OCCN(C)C` [Example 11, Ethyl 2-(4-pyrimidinyl)ethenyl-4-N,N--dimethylaminoethoxyphenyl-3 oxamate] to `CCOCCOC(=O)C(=O)Nc1ccc(C=Cc2cc(N)nc(C)n2)cc1` [Example 33, Ethoxyethyl 2-(2-methyl-6-aminopyrimidin-4-yl)-ethenylphenyl-4 oxamate hemihydrate], the inhibition in vivo at 10 mg/kg rises from 9% to 52%.

For `CCOCCOC(=O)C(=O)Nc1ccc(C=Cc2cnccn2)cc1` [Example 32, Ethoxyethyl 2-(2-pyrazinyl)ethenylphenyl-4 oxamate], the inhibition in vivo at 10 mg/kg was 46%.

same assay, conditions: Rattus norvegicus, iv; ovalbumin challenge within five minutes; estimated from dose response curves; read-out: ED50 (dose reducing the size of the blued area by 50%)

First: O=C(O)C(=O)Nc1ccc(C=Cc2ccncn2)c(NC(=O)C(=O)O)c1 [Example 36, 2-(4-Pyrimidinyl)ethenylphenyl-2,4 dioxamic acid di-ethanolamine salt]
Second: O=C(O)C(=O)Nc1ccc(C=Cc2cnccn2)c(NC(=O)C(=O)O)c1 [Example 35, 2-(2-Pyrazinyl)ethenylphenyl-2,4 dioxamic acid di-ethanolamine salt]
The ED50 of the first is 11-fold lower: 0.05 mg/kg for the first, 0.53 mg/kg for the second.

`Cc1nc(C=Cc2cccc(NC(=O)C(=O)O)c2)cc(NC(=O)C(=O)O)n1` [Example 27, 2-(2-Methyl-6-carboxycarbonyl-aminopyrimidin-4-yl)-ethenylphenyl-3 oxamic acid di-tromethane salt] gave an ED50 of 0.03 mg/kg.

same assay, conditions: Rattus norvegicus, po; 30 minutes before ovalbumin challenge; estimated from dose response curves; read-out: ED50 (dose reducing the size of the blued area by 50%)

Compared with `O=C(O)C(=O)Nc1ccccc1C=Cc1ccncn1` [Example 7, 2-(4-Pyrimidinyl)ethenylphenyl-2 oxamic acid ethanolamine salt], `O=C(O)C(=O)Nc1cccc(C=Cc2ccncn2)c1` [Example 5, 2-(4-Pyrimidinyl)ethenylphenyl-3 oxamic acid ethanolamine salt] is 1.5-fold higher in ED50: 8 mg/kg for the first, 12.3 mg/kg for the second.

First: CCOC(=O)C(=O)Nc1ccc(C=Cc2cc(OCC)nc(OCC)n2)cc1 [Example 13, Ethyl 2-(2,6-diethoxypyrimidin-4-yl)ethenylphenyl-4 oxamate]
Second: CCOC(=O)C(=O)Nc1ccc(C=Cc2cc(N)nc(C)n2)cc1 [Example 14, Ethyl 2-(2-methyl-6-aminopyrimidin-4-yl)ethenyl phenyl-4 oxamate]
The ED50 of the first is 3-fold higher: 30 mg/kg for the first, 10 mg/kg for the second.

`CCOC(=O)C(=O)Nc1cccc(C=Cc2cc(NC(=O)C(=O)OCC)nc(C)n2)c1` [Example 26, Ethyl 2-(2-methyl-6-ethoxyoxalyl-aminopyrimidin-4-yl)-ethenylphenyl-3 oxamate hemihydrate] and `CCOC(=O)C(=O)Nc1ccc(C=Cc2cc(NC(=O)C(=O)OCC)nc(C)n2)cc1` [Example 24, Ethyl 2-(2-methyl-6-ethoxyoxalylaminopyrimidin-4-yl)-ethenylphenyl-4 oxamate] cannot be ordered by ED50: under 10 mg/kg for the first, 0.3 mg/kg for the second.

Going from `CCOC(=O)C(=O)Nc1ccc(C=Cc2ccncn2)c(O)c1` [Example 8, Ethyl 2-(4-pyrimidinyl)ethenyl-2-hydroxyphenyl-4 oxamate] to `CCOC(=O)C(=O)Nc1cccc(C=Cc2ccncn2)c1` [Example 4, Ethyl 2-(4-pyrimidinyl)ethenylphenyl-3 oxamate], the ED50 falls from 4.5 mg/kg to 2.8 mg/kg (1.6-fold).

First: Cc1nc(C=Cc2ccc(NC(=O)C(=O)O)cc2)cc(NC(=O)C(=O)O)n1 [Example 25, 2-(2-Methyl-6-carboxycarbonylaminopyrimidin-4-yl)-ethenylphenyl-4 oxamic acid hydrate diethanolamine salt]
Second: O=C(O)C(=O)Nc1ccc(C=Cc2cnccn2)cc1 [Example 21, 2-(2-Pyrazinyl)ethenylphenyl-4 oxamic acid sodium salt]
The ED50 of the first is 2.5-fold lower: 4 mg/kg for the first, 10 mg/kg for the second.

Compared with `CCOC(=O)C(=O)Nc1ccc(C=Cc2cnccn2)cc1` [Example 20, Ethyl 2-(2-pyrazinyl)ethenylphenyl-4 oxamate], `CCOC(=O)C(=O)Nc1ccc(C=Cc2ccncn2)cc1` [Example 1, Ethyl 2-(4-pyrimidinyl)ethenylphenyl-4 oxamate] is 3.3-fold lower in ED50: 4.6 mg/kg for the first, 1.4 mg/kg for the second.

First: CCOC(=O)C(=O)Nc1ccc(C=Cc2ccncn2)c(NC(=O)C(=O)OCC)c1 [Example 12, Diethyl 2-(4-pyrimidinyl)ethenylphenyl-2,4-dioxamate]
Second: CCOC(=O)C(=O)Nc1ccc(C=Cc2ccnc(NC(=O)C(=O)OCC)n2)cc1 [Example 3, Ethyl 2-(2-ethoxyoxalylaminopyrimidin-4-yl)-ethenylphenyl-4 oxamate]
The ED50 of the first is 5-fold lower: 2 mg/kg for the first, 10 mg/kg for the second.

`CCOC(=O)C(=O)Nc1ccc(C=Cc2cc(C)ncn2)cc1` [Example 15, Ethyl 2-(6-methylpyrimidin-4-yl)ethenylphenyl-4 oxamate] and `CCOC(=O)C(=O)Nc1ccc(C=Cc2cccnn2)cc1` [Example 18, Ethyl 2-(3-pyridazinyl)ethenylphenyl-4 oxamate] are within 1.5-fold of each other in ED50: 1.1 mg/kg for the first, 1 mg/kg for the second.

Going from `O=C(O)C(=O)Nc1cccc(C=Cc2cnccn2)c1` [Example 23, 2-(2-Pyrazinyl)ethenylphenyl-3 oxamic acid ethanolamine salt] to `CCOC(=O)C(=O)Nc1cccc(C=Cc2cnccn2)c1` [Example 22, Ethyl 2-(2-pyrazinyl)ethenylphenyl-3 oxamate], the ED50 rises from under 1 mg/kg to 4 mg/kg.

same assay, conditions: p.o.; 30 minutes before ovalbumin challenge; estimated from dose response curves

With “Ethyl 2-(4-pyrimidinyl)ethenyl-6-chlorophenyl-3 oxamate [Example 9]” the “ED50 (dose reducing the size of the blued area by 50%)” value was 2 mg/kg, p.o.
In the case of `O=C(O)c1cc(=O)c2c(OCC(O)COc3cccc4oc(C(=O)O)cc(=O)c34)cccc2o1` [Cromoglycate], the “ED50 (dose reducing the size of the blued area by 50%)” value is reported as “Inactive”.
